# Data reported in patent US11643421B2, “Process for the preparation of tricyclic PI3K inhibitor compounds and methods for using the same for the treatment of cancer” (priority 2015, dated 2023).
# Like-named read-outs stand apart in the source and are kept apart here.
# Key:
# high-grade gliomas [1] = assay: Phase I study, FDG-PET tumor response; assay type: in vivo, human; details: 27 patients who underwent FDG-PET imaging
# Protocol: Tumor response was determined by either an assessment of FDG-PET or by Response Assessment in Neuro-Oncology (RANO).
# The outcome measure for this objective was based on the maximum standard uptake value (SUVmax) of up to five lesions. The tumor regions of interest (ROIs) were identified for each patient on pretreatment PET imaging and corresponded to a subset of the target lesions used for analysis of the patient's pretreatment tumor assessment scans. […] Specifically, the SUVmax of each ROI on the on-treatment scans was compared with its SUVmax on the corresponding pretreatment scan and the percent change was determined. In the event of more than one ROI, the overall percent change in SUVmax was the arithmetic mean of the percent changes in SUVmax for each of the ROIs (mSUVmax). PET response is defined as follows. Progressive disease (PET-PD): percent increase of >20% in mSUVmax or the development of a new lesion with an SUVmax above background and not explained by another cause (e.g., infection). Stable disease (PET-SD): percent increase of ≤20% in mSUVmax or a percent decrease of ≤20% in mSUVmax. Partial response (PET-PR): percent decrease of >20% in mSUVmax. […]
# Reduction in ^18F-FDG uptake measured by PET is indicative of reduced glucose metabolism activity, a likely PD response of PI3K pathway inhibition.
# PAK2 = PAK2 (Homo sapiens, UniProt Q13177); assay: biochemical; details: read-out: % inhib
# Chain of PAK2 (Q13177 whole entry): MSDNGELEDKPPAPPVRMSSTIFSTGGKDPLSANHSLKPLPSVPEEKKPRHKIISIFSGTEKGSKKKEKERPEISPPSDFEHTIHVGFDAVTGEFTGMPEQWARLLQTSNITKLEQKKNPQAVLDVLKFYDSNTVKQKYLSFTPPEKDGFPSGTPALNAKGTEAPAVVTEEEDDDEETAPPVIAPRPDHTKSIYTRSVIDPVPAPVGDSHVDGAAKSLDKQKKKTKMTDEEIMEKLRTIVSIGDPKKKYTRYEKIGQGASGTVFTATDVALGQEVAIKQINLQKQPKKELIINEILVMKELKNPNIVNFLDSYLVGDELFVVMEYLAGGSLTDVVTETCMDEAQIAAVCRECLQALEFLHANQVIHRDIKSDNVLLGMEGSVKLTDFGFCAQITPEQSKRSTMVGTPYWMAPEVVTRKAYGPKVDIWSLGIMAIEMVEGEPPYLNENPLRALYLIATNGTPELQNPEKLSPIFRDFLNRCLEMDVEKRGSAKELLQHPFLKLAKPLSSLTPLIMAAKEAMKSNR
# NEK2 = NEK2 (Homo sapiens, UniProt P51955); assay: biochemical; details: read-out: % inhib
# Chain of NEK2 (P51955 whole entry): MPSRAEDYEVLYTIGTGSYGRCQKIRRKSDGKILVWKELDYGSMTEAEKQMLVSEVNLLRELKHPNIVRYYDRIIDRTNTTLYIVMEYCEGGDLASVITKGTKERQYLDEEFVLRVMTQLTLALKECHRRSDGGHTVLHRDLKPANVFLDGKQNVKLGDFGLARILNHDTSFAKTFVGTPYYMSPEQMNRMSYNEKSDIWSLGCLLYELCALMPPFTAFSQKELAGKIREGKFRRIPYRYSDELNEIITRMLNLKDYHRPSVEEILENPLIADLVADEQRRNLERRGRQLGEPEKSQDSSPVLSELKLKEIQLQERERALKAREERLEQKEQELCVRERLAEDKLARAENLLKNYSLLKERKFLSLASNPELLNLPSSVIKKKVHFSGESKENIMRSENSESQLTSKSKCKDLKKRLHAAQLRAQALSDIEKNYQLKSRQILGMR
# human BCRP = target: T1, human BCRP (Homo sapiens, UniProt Q9UNQ0); assay: Transport assay in BCRP-MDCKII cell monolayers; assay type: in vitro ADME; details: 2-hour incubation
# T1 construct: host or cells: BCRP-MDCKII (canine kidney)
# T1 sequence (Q9UNQ0 whole entry): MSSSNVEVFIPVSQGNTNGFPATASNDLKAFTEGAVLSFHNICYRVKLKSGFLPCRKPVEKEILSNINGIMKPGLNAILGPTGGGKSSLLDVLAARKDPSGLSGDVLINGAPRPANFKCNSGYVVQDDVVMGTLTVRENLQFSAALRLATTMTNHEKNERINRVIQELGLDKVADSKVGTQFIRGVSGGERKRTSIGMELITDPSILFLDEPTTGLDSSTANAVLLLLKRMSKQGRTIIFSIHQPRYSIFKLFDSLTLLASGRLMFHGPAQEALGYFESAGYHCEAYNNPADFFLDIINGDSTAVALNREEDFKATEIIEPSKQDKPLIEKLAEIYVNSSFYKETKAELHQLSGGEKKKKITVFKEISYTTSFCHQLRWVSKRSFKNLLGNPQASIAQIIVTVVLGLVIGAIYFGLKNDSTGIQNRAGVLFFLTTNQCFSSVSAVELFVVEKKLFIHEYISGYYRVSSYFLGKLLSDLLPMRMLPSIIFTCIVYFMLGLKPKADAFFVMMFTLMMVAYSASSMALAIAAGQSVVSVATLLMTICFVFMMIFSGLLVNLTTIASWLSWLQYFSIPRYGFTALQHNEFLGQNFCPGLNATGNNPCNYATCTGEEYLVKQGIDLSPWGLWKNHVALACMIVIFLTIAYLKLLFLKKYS
# Protocol: MDR1-MDCKI cells were licensed from the NCI (National Cancer Institute, Bethesda, Md.) and Bcrp1-MDCKII, BCRP-MDCKII and Mdr1a-LLC-PK1 cells were obtained from the Netherlands Cancer Institute (Amsterdam. The Netherlands). […] The compound was dissolved in transport buffer consisting of Hank's balanced salt solution (HBSS) with 10 mM HEPES (Invitrogen Corporation, Grand Island, N.Y.). Lucifer Yellow (Sigma-Aldrich, St. Louis, Mo.) was used as the paracellular and monolayer integrity marker. […] The efflux ratio (ER) was calculated (Papp, B-A/Papp, A-B).
# [2] = Plasma and brain concentrations in GS2 tumor-bearing mice; assay type: in vivo; details: mouse, 15 mg/kg PO; for concentration at 2 h: 2 h post-dose; for concentration at 8 h: 8 h post-dose
# TAO1 = assay: Kinase panel; assay type: biochemical; details: TAO1, 1 μM
# [3] = Hepatocyte stability, predicted hepatic clearance; assay type: in vitro ADME; details: in vitro t1/2 method
# Protocol: (§1) The hepatocyte stability of compound IIIat was evaluated across preclinical species. Certain in vivo pharmacokinetic parameters were also evaluated. […] Male Sprague-Dawley rats, female CD-1 mice, male cynomolgus monkeys and beagle dogs were dosed intravenously with 1 mg/kg of compound IIIat prepared in 60% PEG400/10% Ethanol. Compound IIIat was administered orally (PO) at the indicated dose in 0.5% methylcellulose with 0.2% Tween 80 (MCT).
# pAKT = assay: Modulation of pAkt in the brain of healthy mice; assay type: in vivo, Female CD-1 mice; details: single oral dose 25 mg/kg
# Protocol: Inhibition of the PI3K pathway was assessed in the brain of healthy mice through measurement of two markers, pAkt and pS6. […] Brains and plasma were collected at 1 and 6 hours post-dose, from 3 animals at each time point. […] For PD analysis, cell extraction buffer (Invitrogen, Camarillo, Calif.) containing 10 mM Tris pH 7.4, 100 mM NaCl, 1 mM EDTA, 1 mM EGTA, 1 mM NaF, 20 mM Na4P2O7, 2 mM Na3VO4, 1% Triton X-100, 10% glycerol, 0.1% SDS, and 0.5% deoxycholate was supplemented with phosphatase, protease inhibitors (Sigma, St. Louis, Mo.) and 1 mM PMSF and added to frozen brain biopsies. Brains were homogenized with a small pestle (Konte Glass Company, Vineland, N.J.), sonicated briefly on ice, and centrifuged at 20,000 g for 20 minutes at 4° C. Protein concentration was determined using BCA protein assay (Pierce, Rockford, Ill.). Proteins were separated by electrophoresis and transferred to NuPage nitrocellulose membranes (Invitrogen, Camarillo, Calif.). Licor Odyssey Infrared detection system (Licor, Lincoln, Nebr.) was used to assess and quantify protein expression. […] The differences in marker levels between the treated and control mice were evaluated using the Student's t-test (Prism 5, GraphPad).
# PhK_gamma2 = PhK_gamma2 (Homo sapiens, UniProt P15735); assay: biochemical; details: read-out: % inhib
# Chain of PhK_gamma2 (P15735 whole entry): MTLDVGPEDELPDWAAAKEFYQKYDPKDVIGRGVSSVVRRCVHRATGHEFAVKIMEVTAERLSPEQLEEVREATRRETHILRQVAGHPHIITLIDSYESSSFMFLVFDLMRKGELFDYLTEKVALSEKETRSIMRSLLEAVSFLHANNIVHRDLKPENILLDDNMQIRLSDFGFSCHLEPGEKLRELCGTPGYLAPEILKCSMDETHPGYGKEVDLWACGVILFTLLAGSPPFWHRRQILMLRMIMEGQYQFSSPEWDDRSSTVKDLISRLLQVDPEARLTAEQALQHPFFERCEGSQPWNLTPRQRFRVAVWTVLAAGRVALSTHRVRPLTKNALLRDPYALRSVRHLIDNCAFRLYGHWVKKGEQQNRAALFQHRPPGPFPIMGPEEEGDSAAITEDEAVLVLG
# Fyn = Fyn (Homo sapiens, UniProt P06241); assay: biochemical; details: read-out: % inhib
# Chain of Fyn (P06241 whole entry, the tested form may be a part): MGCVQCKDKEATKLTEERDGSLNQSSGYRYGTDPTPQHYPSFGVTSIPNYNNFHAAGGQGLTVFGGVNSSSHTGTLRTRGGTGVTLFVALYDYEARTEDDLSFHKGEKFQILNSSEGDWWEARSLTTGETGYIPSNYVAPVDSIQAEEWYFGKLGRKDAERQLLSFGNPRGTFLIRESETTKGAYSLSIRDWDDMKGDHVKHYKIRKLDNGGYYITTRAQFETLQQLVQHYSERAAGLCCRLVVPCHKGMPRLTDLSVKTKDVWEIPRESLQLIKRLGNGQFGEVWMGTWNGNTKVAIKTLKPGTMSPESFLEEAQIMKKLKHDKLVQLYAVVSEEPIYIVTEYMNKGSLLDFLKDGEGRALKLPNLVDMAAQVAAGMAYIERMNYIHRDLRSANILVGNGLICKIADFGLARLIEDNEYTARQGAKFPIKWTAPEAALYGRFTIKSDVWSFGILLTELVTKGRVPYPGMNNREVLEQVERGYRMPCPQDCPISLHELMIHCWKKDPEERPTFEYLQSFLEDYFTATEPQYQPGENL
# high-grade gliomas [4] = assay: Phase I study, exploratory MRI; assay type: in vivo, human; details: 34 patients, Ktrans, cerebral blood volume, apparent diffusion coefficient
# Protocol: Thirty-four patients were evaluated by exploratory magnetic resonance imaging (“MRI”). […] The Ktrans changes were within the likely noise range of the measurement (based on variability in low-exposure cohorts).
# PI4Ka = PI4Ka (Homo sapiens, UniProt P42356); assay: biochemical; details: read-out: % inhib
# [5] = Phase I study, brain tumor and brain tissue concentration; assay type: in vivo, human; details: concentration from brain tumor tissue, patients
# CLK3 = CLK3 (Homo sapiens, UniProt P49761); assay: biochemical; details: read-out: % inhib
# Chain of CLK3 (P49761 whole entry, species assumed): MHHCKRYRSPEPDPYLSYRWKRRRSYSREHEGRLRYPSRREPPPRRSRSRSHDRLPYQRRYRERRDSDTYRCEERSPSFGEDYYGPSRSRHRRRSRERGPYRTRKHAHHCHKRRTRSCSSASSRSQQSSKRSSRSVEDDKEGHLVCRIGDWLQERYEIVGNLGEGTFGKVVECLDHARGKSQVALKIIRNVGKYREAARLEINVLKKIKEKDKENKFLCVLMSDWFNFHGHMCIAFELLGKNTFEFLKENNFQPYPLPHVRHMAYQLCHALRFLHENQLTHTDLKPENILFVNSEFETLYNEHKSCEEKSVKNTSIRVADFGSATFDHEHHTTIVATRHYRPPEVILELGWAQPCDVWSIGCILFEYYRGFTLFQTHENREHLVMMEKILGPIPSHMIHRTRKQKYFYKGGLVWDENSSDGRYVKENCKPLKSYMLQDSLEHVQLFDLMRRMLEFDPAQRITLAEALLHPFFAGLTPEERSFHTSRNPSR
# Ron = Ron (Homo sapiens, UniProt Q04912); assay: biochemical; details: read-out: % inhib
# Chain of Ron (Q04912 25-1400, species assumed): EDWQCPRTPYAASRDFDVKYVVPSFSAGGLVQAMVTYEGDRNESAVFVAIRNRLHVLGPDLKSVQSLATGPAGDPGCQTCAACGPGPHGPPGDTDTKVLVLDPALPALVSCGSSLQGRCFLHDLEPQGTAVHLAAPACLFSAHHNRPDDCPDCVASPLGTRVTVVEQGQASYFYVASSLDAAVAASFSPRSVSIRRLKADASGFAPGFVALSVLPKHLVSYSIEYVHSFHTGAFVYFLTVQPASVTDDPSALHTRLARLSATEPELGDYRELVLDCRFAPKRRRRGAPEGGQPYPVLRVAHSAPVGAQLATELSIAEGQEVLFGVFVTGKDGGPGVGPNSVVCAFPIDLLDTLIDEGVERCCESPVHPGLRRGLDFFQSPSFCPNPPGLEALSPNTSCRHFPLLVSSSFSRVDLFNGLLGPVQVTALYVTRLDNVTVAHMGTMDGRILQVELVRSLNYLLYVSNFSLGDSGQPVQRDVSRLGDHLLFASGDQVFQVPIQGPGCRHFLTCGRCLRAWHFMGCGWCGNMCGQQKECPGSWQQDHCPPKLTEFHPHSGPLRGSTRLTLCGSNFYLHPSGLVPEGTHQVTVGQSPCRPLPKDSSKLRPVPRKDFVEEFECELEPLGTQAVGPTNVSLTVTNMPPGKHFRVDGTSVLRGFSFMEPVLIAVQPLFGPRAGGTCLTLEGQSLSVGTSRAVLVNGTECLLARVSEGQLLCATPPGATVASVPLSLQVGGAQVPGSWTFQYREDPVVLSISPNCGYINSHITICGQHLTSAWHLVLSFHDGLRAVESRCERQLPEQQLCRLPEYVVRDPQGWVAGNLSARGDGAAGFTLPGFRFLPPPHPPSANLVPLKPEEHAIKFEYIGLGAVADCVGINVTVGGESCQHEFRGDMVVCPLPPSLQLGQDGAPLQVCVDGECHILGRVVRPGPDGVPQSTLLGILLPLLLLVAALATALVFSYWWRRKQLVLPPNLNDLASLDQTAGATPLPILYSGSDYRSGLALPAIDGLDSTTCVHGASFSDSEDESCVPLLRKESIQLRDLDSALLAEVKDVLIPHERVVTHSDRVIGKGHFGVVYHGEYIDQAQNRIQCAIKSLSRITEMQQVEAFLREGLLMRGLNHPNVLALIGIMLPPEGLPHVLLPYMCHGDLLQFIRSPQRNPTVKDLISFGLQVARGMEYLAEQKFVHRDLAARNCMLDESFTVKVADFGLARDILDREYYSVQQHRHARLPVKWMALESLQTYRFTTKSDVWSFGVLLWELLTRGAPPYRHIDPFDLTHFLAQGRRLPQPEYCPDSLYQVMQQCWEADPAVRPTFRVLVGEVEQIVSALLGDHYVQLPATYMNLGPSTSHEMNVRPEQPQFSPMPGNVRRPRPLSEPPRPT
# [6] = Plasma protein binding (PPB %); assay type: in vitro ADME; details: dog
# Protocol: as §1
# [7] = non-tumored half of the brain, read-out: Brain
structure (smiles),measurement,setting,value
"CC1(C)OCCn2c1nc1c(N3CCOCC3)nc(-c3cnc(N)nc3)nc12 [GDC-0084, 5-(6,6-dimethyl-4-morpholino-8,9-dihydro-6H-[1,4]oxazino[3,4-e]purin-2-yl)pyrimidin-2-amine]",patients with metabolic partial response on FDG-PET,high-grade gliomas [1],five
same,"patients with metabolic partial response on FDG-PET, percent",high-grade gliomas [1],18.5%
same,inhibition at 1 µM,PAK2,3%
same,inhibition at 1 µM,NEK2,20%
same,"Papp A→B at 2 h, 5 μM",human BCRP,23.2 ± 5.4 ×10⁻⁶ cm/s
same,"Papp B→A at 2 h, 5 μM",human BCRP,16 ± 1.1 ×10⁻⁶ cm/s
same,concentration at 2 h,"[2]; plasma, read-out: Plasma",3.64 ± 2.05 µM
same,concentration at 8 h,"[2]; plasma, read-out: Plasma",2.01 ± 1.19 µM
same,concentration at 2 h,[2]; [7],5.51 ± 1.58 µM
same,concentration at 8 h,[2]; [7],2.48 ± 1.25 µM
same,% inhib,TAO1,−1.3%
same,Clhep,[3]; Dog hepatocytes,13 mL/min/kg
same,Clhep,[3]; Mouse hepatocytes,30 mL/min/kg
same,Clhep,[3]; Rat hepatocytes,3 mL/min/kg
same,Suppression of pAkt in brain,pAKT; 1 hour post dose,90%
same,Suppression of pAkt in brain,pAKT; 6 hours after dosing,greater than 70%
same,inhibition at 1 µM,PhK_gamma2,0%
same,inhibition at 1 µM,Fyn,9%
same,MRI derived metrics versus drug plasma exposure,high-grade gliomas [4],"none of the MRI derived metrics (Ktrans, Cerebral blood volume, apparent diffusion coefficient) showed any significant trend with drug plasma exposure"
same,inhibition at 1 µM,PI4Ka,7%
same,blood brain barrier crossing and brain distribution,[5],crosses the blood brain barrier and uniformly distributes throughout the brain
same,inhibition at 1 µM,CLK3,7%
same,inhibition at 1 µM,Ron,8%
same,fraction unbound,[6],0.34
